Experimental data from patent US8344139B2, “Process for preparing crystalline polymorphic forms of (6R)-L-erythro-tetrahydrobiopterin dihydrochloride” (Merck Eprova AG, priority 2003, dated 2013).
“Also recorded” adds a separate entry of the source. Blank lines part the entries; values can stand above or below the compound they belong to.

Legend:
[1] = Hygroscopicity / water adsorption (thermogravimetry, TG-FTIR); format: physicochemical; conditions: for hygroscopicity / adsorbed water content: dihydrochloride; for adsorbed water content: water released on heating at 10° C./minute
Procedure: 1.05 gram of (6R)-L-erythro-tetrahydrobiopterin dihydrochloride are dissolved in 4.0 ml of bi-distilled water at 23±2° C. The solution is filtrated through a 0.22 μm millipore filtration unit and the filtrate is transferred into a 250 ml round flask. The solution in this flask is frozen by placing the flask into a bed with solid carbon dioxide at −78° C. The flask with the frozen content is then connected to a laboratory freeze dryer operating at a starting pressure of about 0.05 mbar. After about 20 hours the freeze drying is complete and the vacuum flask is disconnected from the freeze dryer and about 1.0 g of white, crystalline solid material is obtained. […] The sample begins to decompose above 200° C. TG-FTIR: Thermogravimetric measurements are carried out with a Netzsch Thermo-Micro-balance TG 209 coupled to a Bruker FTIR Spectrometer Vector 22 (sample pans with a pinhole, N2 atmosphere, heating rate 10 K/min).

[2] = Phase equilibration / suspension stability tests in solvents, solid form by FT Raman and X-ray diffraction; format: physicochemical; conditions: room temperature
Procedure: 105 mg of polymorph A according to example A1 are suspended in 1.0 ml tertiary butyl methyl ether (TBME). The suspension is stirred under nitrogen atmosphere for about 18 hours at room temperature, filtrated and the white solid residue is then dried under air.
90 mg of polymorph A according to example A1 are suspended in 2.0 ml tetrahydrofuran (THF) and the resulting suspension is stirred in air for five days at room temperature, filtrated and the white solid residue is then dried under air.
The white suspension is stirred for 5 hours at room temperature, filtrated and dried under nitrogen at room temperature.
The white suspension is stirred over night at room temperature, filtrated and then dried under nitrogen at room temperature.
The white suspension is stirred over night at room temperature, filtrated and dried under nitrogen room temperature.
The white suspension is stirred in air over a weekend at room temperature, filtrated and then dried in air at room temperature. […] The white suspension is stirred for about 20 hours at room temperature, filtrated and dried in air at room temperature.
The suspension is stirred for about 20 hours at room temperature under nitrogen atmosphere, filtrated and then drying under nitrogen.
The suspension is stirred at room temperature under nitrogen atmosphere for about 23 hours, filtrated and dried in air.
105 mg of hydrate form D according to example B3 are suspended in 2.0 ml IPA. The suspension is stirred at room temperature for about 18 hours, filtered and the solid then dried in air at room temperature for about 4 hours.
Powder X-ray Diffraction (PXRD): PXRD is performed either on a Philips 1710 or on a Philips X'Pert powder X-ray diffractometer using CuKα radiation. D-spacings are calculated from the 2θ using the wavelength of the CuKα1 radiation of 1.54060 A. The X-ray tube was operated at a Voltage of 45 kV (or 40 kV with X'Pert Instrument), and a current of 45 mA (or 40 mA with X'Pert Instrument). A step size of 0.02°, and a counting time of 2.4 s per step is applied. Generally, 2θ values are within an error of ±0.1-0.2°. The experimental error on the d-spacing values is therefore dependent on the peak location.
Raman spectroscopy: FT-Raman spectra are recorded on a Bruker RFS 100 FT-Raman system with a near infrared Nd:YAG laser operating at 1064 nm and a liquid nitrogen-cooled germanium detector. For each sample, 64 scans with a resolution of 2 cm^−1 are accumulated. Generally; 300 mW laser power is used.

[3] = Storage of solid forms under defined relative humidity, resulting crystal form; format: physicochemical
Procedure: Hydrate form C is retained. 71 mg of polymorph form A according to example A1 are stored in air under 52% relative humidity at room temperature for 17 days. […] About 50 mg of polymorph form F according to example A26 are placed on an powder X-ray diffraction sample holder of 0.8 mm thickness (TTK type, obtained form Anton Pear GmbH, Graz, Austria). The prepared sample holder is placed in the closed sample chamber of a Philips X'Pert powder X-ray diffractometer and the sample chamber is purged with nitrogen and partially saturated with water vapour to a resulting relative humidity of about 52%. After an exposure time of about 24 hour a powder X-ray diffraction pattern is recorded.

[4] = Relative stability of the crystal forms as described; conditions: for relative stability of the crystal form: dihydrochloride
[5] = 52% relative humidity, room temperature, 17 days, dihydrochloride

hygroscopicity ([1]; listed as polymorph A): slightly hygroscopic | temperature above which the sample begins to decompose ([1]; thermogravimetry, heating rate 10° C./minute): above 200 °C | adsorbed water content ([1]; listed as polymorph A): about 3 percent by weight | crystal form after suspension stirring ([2]; tertiary butyl methyl ether, about 18 hours, nitrogen, dihydrochloride): unchanged polymorph form A | crystal form after suspension stirring ([2]; tertiary butyl methyl ether, about 18 hours, nitrogen, listed as polymorph A, dihydrochloride): essentially still corresponds to form A | crystal form after suspension stirring ([2]; tetrahydrofuran, five days, dihydrochloride): unchanged polymorph form A | crystal form after suspension stirring ([2]; tetrahydrofuran, five days, listed as polymorph A, dihydrochloride): still corresponds to form A | crystal form after storage [3, 5]: corresponds to hydrate form E
SMILES: C[C@H](O)[C@H](O)[C@H]1CNc2nc(N)[nH]c(=O)c2N1.Cl.Cl [form A, (6R)-L-erythro-tetrahydrobiopterin dihydrochloride]

hygroscopicity ([1]; listed as Polymorph B): slightly hygroscopic | crystal form after suspension stirring ([2]; 2-Propanol, over night, nitrogen): polymorph form B | crystal form after suspension stirring ([2]; EtOH, over night, nitrogen): polymorph form B | crystal form after suspension stirring ([2]; acetone, over night, nitrogen): polymorph form B | crystal form after suspension stirring ([2]; acetonitrile containing 2% by weight of water, about 20 hours, nitrogen): polymorph form B | crystal form after suspension stirring ([2]; ethyl acetate containing 2% by weight of water, about 23 hours, nitrogen): polymorph form B | crystal form after suspension stirring ([2]; methanol, 5 hours, nitrogen): polymorph form B | crystal form after storage ([3]; open container under air, 75% relative humidity, 40° C., 5 days): still polymorph form B
SMILES: C[C@H](O)[C@H](O)[C@H]1CNc2nc(N)[nH]c(=O)c2N1.Cl.Cl [form B, (6R)-L-erythro-tetrahydrobiopterin dihydrochloride]
crystal form after suspension stirring ([2]; EtOH in air, over a weekend): slightly yellow crystalline solid, polymorph form B | crystal form after suspension stirring ([2]; THF, about 20 hours, nitrogen (slightly yellow solid from the EtOH/air test)): slightly yellow crystalline solid, polymorph form B

hygroscopicity [1]: slightly hygroscopic | conversion of the crystal form ([4]; about 40° C. in air and lower relative humidity): easily converted to polymorph form B | crystal form after storage [3, 5]: retained
SMILES: C[C@H](O)[C@H](O)[C@H]1CNc2nc(N)[nH]c(=O)c2N1.Cl.Cl [form C, (6R)-L-erythro-tetrahydrobiopterin dihydrochloride]

hygroscopicity [1]: slightly hygroscopic | crystal form after suspension stirring ([2]; IPA, about 18 hours): unchanged hydrate form D | stability on exposure to air humidity ([4]; ambient temperature): stable | relative stability of the crystal form ([4]; listed as hydrate D): much higher stability than form C
SMILES: C[C@H](O)[C@H](O)[C@H]1CNc2nc(N)[nH]c(=O)c2N1.Cl.Cl [form D, (6R)-L-erythro-tetrahydrobiopterin dihydrochloride]
relative stability of the crystal form [4]: most stable one under the known hydrates at ambient temperatures and a relative humidity of less than 70%; also recorded: most stable form under the hydrates

hygroscopicity [1]: non-hygroscopic | crystal form after storage [3, 5]: retained
SMILES: C[C@H](O)[C@H](O)[C@H]1CNc2nc(N)[nH]c(=O)c2N1.Cl.Cl [form E, (6R)-L-erythro-tetrahydrobiopterin dihydrochloride]

hygroscopicity ([1]; listed as polymorph F): slightly hygroscopic | adsorbed water content ([1]; listed as polymorph F): about 3 percent by weight | crystal form after exposure to humidity ([3]; nitrogen with water vapour, relative humidity about 52%, about 24 hour): crystalline form O
SMILES: C[C@H](O)[C@H](O)[C@H]1CNc2nc(N)[nH]c(=O)c2N1.Cl.Cl [form F, (6R)-L-erythro-tetrahydrobiopterin dihydrochloride]

hygroscopicity [1]: hygroscopic
SMILES: C[C@H](O)[C@H](O)[C@H]1CNc2nc(N)[nH]c(=O)c2N1.Cl.Cl [form G, (6R)-L-erythro-tetrahydrobiopterin dihydrochloride]

hygroscopicity [1]: hygroscopic
SMILES: C[C@H](O)[C@H](O)[C@H]1CNc2nc(N)[nH]c(=O)c2N1.Cl.Cl [form H, (6R)-L-erythro-tetrahydrobiopterin dihydrochloride]

hygroscopicity [1]: hygroscopic
SMILES: C[C@H](O)[C@H](O)[C@H]1CNc2nc(N)[nH]c(=O)c2N1.Cl.Cl [form I, (6R)-L-erythro-tetrahydrobiopterin dihydrochloride]

hygroscopicity ([1]; listed as polymorph J): slightly hygroscopic | relative humidity at which the form transforms back into form E [4]: above 75 % relative humidity
SMILES: C[C@H](O)[C@H](O)[C@H]1CNc2nc(N)[nH]c(=O)c2N1.Cl.Cl [form J, (6R)-L-erythro-tetrahydrobiopterin dihydrochloride]

hygroscopicity ([1]; listed as polymorph K): slightly hygroscopic | adsorbed water content ([1]; listed as polymorph K): about 2.0 percent by weight
SMILES: C[C@H](O)[C@H](O)[C@H]1CNc2nc(N)[nH]c(=O)c2N1.Cl.Cl [form K, (6R)-L-erythro-tetrahydrobiopterin dihydrochloride]
relative stability of the crystal form ([4]; listed as polymorph K): less stable than form B at higher temperatures

hygroscopicity [1]: slightly hygroscopic
SMILES: C[C@H](O)[C@H](O)[C@H]1CNc2nc(N)[nH]c(=O)c2N1.Cl.Cl [form M, (6R)-L-erythro-tetrahydrobiopterin dihydrochloride]

hygroscopicity [1]: slightly hygroscopic
SMILES: C[C@H](O)[C@H](O)[C@H]1CNc2nc(N)[nH]c(=O)c2N1.Cl.Cl [form N, (6R)-L-erythro-tetrahydrobiopterin dihydrochloride]

SMILES: C[C@H](O)[C@H](O)[C@H]1CNc2nc(N)[nH]c(=O)c2N1.Cl.Cl [form O, (6R)-L-erythro-tetrahydrobiopterin dihydrochloride]
relative stability of the crystal form [4]: more stable than form F under ambient temperature and humidity conditions
